Columns and labels:
Experiment in all cases: Kinase selectivity, DiscoverX scanMAX Kinase assay panel (% control)
Format in all cases: binding
[1] = biological target: T1, kinases of the scanMAX Kinase assay panel (Homo sapiens, UniProt O94804); settings: LOK; 1 uM
T1 construct: purchased DiscoverX Co. (contract measurement) scanMAX Kinase assay panel
How it was run: (§1)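 Compounds were tested at 1 uM (in DMSO) against each panel kinase. % control was calculated as (compound − positive control)/(negative control − positive control)×100, where the positive control gives 0% and DMSO gives 100%. Activity toward a kinase was called at % control <35%.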

[2] = biological target: T2, kinases of the scanMAX Kinase assay panel (Homo sapiens, UniProt Q9UEW8); settings: kinase STK39; 1 uM in DMSO
T2 construct: purchased DiscoverX Co. (contract measurement) scanMAX Kinase assay panel
How it was run: as §1

[3] = biological target: T3, kinases of the scanMAX Kinase assay panel (Homo sapiens, UniProt P49336); settings: CDK8; 1 uM
T3 construct: purchased DiscoverX Co. (contract measurement) scanMAX Kinase assay panel
How it was run: as §1

[4] = biological target: T4, kinases of the scanMAX Kinase assay panel (Homo sapiens, UniProt P00533, G719S); settings: EGFR(G719S); 1 uM
T4 construct: purchased DiscoverX Co. (contract measurement) scanMAX Kinase assay panel
How it was run: as §1

[5] = biological target: T5, kinases of the scanMAX Kinase assay panel (Homo sapiens, UniProt P07947); settings: kinase YES; 1 uM in DMSO
T5 construct: purchased DiscoverX Co. (contract measurement) scanMAX Kinase assay panel
How it was run: as §1

[6] = biological target: T6, kinases of the scanMAX Kinase assay panel (Homo sapiens, UniProt P00533); settings: EGFR; 1 uM
T6 construct: purchased DiscoverX Co. (contract measurement) scanMAX Kinase assay panel
How it was run: as §1

[7] = biological target: T7, kinases of the scanMAX Kinase assay panel (Homo sapiens, UniProt Q6ZN16); settings: MAP3K15; 1 uM
T7 construct: purchased DiscoverX Co. (contract measurement) scanMAX Kinase assay panel
T7 sequence (Q6ZN16 1-1313): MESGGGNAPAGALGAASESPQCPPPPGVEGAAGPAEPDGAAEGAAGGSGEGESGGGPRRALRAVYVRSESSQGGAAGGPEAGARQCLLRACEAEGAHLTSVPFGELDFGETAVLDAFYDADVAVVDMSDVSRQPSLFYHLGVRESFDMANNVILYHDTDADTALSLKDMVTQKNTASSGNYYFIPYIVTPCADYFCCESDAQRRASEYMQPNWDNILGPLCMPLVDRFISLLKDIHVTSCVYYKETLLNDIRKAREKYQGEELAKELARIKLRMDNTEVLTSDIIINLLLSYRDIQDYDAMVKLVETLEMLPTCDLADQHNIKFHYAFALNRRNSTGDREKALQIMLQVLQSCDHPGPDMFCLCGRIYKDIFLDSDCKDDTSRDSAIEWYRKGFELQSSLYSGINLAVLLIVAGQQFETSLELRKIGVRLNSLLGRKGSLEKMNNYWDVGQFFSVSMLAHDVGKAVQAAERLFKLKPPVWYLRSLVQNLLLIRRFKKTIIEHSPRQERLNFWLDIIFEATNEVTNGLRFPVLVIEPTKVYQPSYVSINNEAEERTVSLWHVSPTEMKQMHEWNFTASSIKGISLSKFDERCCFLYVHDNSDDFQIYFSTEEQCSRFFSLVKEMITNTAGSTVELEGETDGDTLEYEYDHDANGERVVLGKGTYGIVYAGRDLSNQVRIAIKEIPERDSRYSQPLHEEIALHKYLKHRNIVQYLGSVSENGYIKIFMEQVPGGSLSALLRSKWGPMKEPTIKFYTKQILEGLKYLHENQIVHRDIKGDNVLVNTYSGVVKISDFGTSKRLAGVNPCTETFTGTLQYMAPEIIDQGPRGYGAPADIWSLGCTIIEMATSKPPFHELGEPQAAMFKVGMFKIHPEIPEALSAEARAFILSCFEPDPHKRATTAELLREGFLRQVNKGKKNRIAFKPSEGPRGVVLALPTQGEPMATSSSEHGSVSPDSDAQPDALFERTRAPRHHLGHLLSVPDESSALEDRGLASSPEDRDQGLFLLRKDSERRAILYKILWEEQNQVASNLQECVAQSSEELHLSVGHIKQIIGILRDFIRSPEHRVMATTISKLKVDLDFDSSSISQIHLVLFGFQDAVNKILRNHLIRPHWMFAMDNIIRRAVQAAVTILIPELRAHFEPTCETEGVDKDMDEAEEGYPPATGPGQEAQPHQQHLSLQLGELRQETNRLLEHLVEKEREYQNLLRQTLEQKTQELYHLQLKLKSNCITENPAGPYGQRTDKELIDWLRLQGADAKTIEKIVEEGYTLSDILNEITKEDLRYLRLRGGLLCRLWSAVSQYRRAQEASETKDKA
How it was run: as §1

[8] = biological target: T8, kinases of the scanMAX Kinase assay panel (Homo sapiens, UniProt Q9UM73); settings: ALK; 1 uM
T8 construct: purchased DiscoverX Co. (contract measurement) scanMAX Kinase assay panel
How it was run: as §1

[9] = biological target: T9, kinases of the scanMAX Kinase assay panel (Homo sapiens, UniProt Q9Y2U5); settings: MAP3K2; 1 uM
T9 construct: purchased DiscoverX Co. (contract measurement) scanMAX Kinase assay panel
T9 sequence (Q9Y2U5 1-619): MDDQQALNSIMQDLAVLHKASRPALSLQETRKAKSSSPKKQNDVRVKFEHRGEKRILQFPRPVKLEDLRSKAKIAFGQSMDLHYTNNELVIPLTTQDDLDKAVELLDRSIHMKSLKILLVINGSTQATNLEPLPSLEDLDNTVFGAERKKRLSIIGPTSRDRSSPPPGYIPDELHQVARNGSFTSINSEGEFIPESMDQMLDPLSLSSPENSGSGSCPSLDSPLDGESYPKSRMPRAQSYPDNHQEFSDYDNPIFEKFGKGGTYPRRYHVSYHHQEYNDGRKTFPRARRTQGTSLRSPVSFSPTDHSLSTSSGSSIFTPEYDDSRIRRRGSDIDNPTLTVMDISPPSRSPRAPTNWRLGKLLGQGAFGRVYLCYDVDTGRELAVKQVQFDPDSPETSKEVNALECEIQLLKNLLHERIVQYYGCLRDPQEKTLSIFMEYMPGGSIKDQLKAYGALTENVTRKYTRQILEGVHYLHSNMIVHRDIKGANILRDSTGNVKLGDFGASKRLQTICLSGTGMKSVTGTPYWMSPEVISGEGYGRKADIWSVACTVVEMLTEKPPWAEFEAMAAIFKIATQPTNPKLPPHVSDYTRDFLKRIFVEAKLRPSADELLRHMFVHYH
How it was run: as §1

[10] = biological target: T10, kinases of the scanMAX Kinase assay panel (Homo sapiens, UniProt P50750); settings: CDK9; 1 uM
T10 construct: purchased DiscoverX Co. (contract measurement) scanMAX Kinase assay panel
How it was run: as §1

T8 sequence (Q9UM73 19-1620): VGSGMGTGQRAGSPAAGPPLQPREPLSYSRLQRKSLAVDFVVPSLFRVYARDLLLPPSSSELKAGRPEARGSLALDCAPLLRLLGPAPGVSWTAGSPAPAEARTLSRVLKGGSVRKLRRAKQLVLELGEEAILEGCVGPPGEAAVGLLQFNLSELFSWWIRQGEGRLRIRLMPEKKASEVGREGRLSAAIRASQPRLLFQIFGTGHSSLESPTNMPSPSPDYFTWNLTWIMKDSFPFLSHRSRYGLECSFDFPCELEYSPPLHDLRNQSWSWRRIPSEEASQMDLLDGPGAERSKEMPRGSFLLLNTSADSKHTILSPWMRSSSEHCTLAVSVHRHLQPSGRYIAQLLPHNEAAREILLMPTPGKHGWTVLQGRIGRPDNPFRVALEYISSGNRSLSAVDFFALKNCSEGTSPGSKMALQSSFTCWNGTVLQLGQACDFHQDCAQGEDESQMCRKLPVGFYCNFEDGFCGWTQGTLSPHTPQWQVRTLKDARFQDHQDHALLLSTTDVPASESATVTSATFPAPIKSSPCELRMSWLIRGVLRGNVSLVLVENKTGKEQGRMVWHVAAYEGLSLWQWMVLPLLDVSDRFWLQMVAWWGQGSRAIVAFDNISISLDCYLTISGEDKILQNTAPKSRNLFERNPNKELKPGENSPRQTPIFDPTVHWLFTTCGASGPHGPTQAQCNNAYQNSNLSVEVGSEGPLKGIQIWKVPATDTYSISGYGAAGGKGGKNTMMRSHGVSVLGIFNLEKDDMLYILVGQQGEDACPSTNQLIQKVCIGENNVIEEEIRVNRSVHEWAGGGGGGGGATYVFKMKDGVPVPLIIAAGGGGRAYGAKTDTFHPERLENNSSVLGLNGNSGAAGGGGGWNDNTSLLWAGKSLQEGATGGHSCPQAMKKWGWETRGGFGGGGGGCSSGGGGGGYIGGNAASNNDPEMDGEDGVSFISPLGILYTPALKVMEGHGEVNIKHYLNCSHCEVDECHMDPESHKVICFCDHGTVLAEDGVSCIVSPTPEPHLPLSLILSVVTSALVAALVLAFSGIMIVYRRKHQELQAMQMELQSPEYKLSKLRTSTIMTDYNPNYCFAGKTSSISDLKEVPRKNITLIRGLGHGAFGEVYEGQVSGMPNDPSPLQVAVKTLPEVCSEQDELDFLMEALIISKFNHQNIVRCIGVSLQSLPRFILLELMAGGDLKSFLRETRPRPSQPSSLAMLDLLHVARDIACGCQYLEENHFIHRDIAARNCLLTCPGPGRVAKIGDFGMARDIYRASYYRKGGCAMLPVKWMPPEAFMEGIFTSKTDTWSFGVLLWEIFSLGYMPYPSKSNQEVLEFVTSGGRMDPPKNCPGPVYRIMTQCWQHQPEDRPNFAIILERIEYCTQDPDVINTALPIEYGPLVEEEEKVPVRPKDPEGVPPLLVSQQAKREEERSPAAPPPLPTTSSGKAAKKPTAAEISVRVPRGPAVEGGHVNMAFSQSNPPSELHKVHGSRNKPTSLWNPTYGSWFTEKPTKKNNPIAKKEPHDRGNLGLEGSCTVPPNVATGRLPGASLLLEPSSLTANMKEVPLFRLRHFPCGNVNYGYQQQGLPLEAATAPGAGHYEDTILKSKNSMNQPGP
T10 sequence (P50750 whole entry): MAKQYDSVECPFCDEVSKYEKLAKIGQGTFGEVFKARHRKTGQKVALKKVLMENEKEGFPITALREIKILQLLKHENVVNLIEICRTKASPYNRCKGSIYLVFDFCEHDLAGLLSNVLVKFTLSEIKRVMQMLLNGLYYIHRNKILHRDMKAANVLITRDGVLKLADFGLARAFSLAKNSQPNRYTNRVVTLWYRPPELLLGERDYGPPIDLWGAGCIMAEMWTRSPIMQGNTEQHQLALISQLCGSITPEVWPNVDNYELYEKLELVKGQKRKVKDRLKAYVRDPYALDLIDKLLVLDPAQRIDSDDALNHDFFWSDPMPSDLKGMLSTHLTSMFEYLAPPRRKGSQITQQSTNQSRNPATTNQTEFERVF
T5 sequence (P07947 whole entry): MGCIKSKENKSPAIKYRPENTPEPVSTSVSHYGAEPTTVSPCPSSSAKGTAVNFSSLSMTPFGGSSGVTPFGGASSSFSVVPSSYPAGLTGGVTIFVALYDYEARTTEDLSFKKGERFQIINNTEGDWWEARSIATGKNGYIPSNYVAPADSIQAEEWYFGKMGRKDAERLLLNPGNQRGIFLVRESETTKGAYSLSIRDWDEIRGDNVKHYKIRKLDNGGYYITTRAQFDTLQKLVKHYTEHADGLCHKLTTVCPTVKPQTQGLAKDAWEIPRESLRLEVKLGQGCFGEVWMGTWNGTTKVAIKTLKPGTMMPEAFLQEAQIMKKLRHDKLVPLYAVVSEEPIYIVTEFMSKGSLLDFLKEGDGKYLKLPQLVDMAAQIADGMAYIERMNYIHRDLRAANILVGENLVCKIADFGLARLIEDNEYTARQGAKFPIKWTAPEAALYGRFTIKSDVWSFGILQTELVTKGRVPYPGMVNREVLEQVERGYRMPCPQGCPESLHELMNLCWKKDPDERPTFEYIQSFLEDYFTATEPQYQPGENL
T6 sequence (P00533 25-1210): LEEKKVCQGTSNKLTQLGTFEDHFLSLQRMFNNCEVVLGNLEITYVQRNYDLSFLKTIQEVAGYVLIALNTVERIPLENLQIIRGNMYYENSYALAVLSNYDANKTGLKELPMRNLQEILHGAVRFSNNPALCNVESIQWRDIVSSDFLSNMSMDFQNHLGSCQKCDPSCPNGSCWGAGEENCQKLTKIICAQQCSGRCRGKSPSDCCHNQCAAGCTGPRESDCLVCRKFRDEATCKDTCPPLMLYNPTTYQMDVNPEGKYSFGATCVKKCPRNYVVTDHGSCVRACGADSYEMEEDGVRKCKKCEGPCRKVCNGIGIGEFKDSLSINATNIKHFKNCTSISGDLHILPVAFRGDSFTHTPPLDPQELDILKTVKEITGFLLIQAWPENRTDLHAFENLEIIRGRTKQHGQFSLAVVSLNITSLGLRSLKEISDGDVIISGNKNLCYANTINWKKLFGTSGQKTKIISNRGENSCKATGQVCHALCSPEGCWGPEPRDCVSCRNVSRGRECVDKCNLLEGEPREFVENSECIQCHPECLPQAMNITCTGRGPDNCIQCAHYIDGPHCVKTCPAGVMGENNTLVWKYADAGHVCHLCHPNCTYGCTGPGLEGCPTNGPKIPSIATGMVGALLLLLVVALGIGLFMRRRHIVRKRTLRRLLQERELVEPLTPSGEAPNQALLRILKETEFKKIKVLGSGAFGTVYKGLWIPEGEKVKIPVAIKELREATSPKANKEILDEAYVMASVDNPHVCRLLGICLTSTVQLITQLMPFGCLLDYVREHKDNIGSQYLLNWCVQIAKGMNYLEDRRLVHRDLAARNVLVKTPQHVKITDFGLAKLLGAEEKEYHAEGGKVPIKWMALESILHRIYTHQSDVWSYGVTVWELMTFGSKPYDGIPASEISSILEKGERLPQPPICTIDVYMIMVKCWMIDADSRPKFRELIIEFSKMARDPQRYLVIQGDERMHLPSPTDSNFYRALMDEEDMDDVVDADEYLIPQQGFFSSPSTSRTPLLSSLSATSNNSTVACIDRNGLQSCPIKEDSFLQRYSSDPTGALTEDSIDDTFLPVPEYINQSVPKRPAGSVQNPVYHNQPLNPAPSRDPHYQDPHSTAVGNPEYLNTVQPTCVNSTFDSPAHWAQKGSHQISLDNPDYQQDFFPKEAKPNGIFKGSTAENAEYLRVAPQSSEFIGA
T3 sequence (P49336 whole entry): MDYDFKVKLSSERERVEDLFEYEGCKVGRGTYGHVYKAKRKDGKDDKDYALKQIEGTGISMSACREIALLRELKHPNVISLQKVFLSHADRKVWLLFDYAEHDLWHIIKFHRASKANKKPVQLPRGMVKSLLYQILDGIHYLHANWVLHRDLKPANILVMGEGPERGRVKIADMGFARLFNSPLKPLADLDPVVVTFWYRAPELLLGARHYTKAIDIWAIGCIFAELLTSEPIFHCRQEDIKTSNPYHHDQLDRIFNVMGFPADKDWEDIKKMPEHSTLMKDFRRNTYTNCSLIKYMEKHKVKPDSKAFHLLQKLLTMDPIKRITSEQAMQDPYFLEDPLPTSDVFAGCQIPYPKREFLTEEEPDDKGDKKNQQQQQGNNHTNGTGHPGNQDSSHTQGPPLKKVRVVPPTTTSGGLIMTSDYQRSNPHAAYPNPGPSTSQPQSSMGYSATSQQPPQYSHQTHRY

CCNc1nc(Nc2ccc(C(=O)N3CCC(N4CCOCC4)CC3)cc2OC)nc2[nH]cc(C(F)(F)F)c12 [Example 104, (4-((4-(ethylamino)-5-(trifluoromethyl)-7H-pyrrolo[2,3-d]pyrimidine-2-yl)amino)-3-methoxyphenyl)(4-morpholinopiperidine-1-yl)methanone] was tested, and the remaining binding at 1 µM [1] was 100%, the remaining binding at 1 µM [2] was 30% and the remaining binding at 1 µM [3] was 86%. It also gave a remaining binding at 1 µM [4] of 100%, a remaining binding at 1 µM [5] of 100% and a remaining binding at 1 µM [6] of 82%. For the same molecule, the remaining binding at 1 µM [7] was 61%, the remaining binding at 1 µM [8] was 0.35% and the remaining binding at 1 µM [9] was 92%. It also gave a remaining binding at 1 µM [10] of 100%.
Molecule CNc1nc(Nc2ccc(C(=O)N3CCOCC3)cc2OC)nc2[nH]cc(C#N)c12 [Example 1, 2-((2-methoxy-4-(morpholine-4-carbonyl)phenyl)amino)-4-(methylamino)-7H-pyrrolo[2,3-d]pyrimidine-5-carbonitrile] has a remaining binding at 1 µM [1] of 95%, a remaining binding at 1 µM [2] of 14% and a remaining binding at 1 µM [3] of 100%. The remaining binding at 1 µM [4] was 82%, the remaining binding at 1 µM [5] was 100% and the remaining binding at 1 µM [6] was 91%. For the same molecule, the remaining binding at 1 µM [7] was 35%, the remaining binding at 1 µM [8] was 13% and the remaining binding at 1 µM [9] was 85%. For the same molecule, the remaining binding at 1 µM [10] was 96%.
CC1(Nc2nc(Nc3cnn([C@H]4CCN(C5COC5)C[C@@H]4F)c3Cl)nc3[nH]cc(C#N)c23)CC1 [Example 52, 2-((5-chloro-1-((3S,4S)-3-fluoro-1-(oxetane-3-yl)piperidine-4-yl)-1H-pyrazole-4-yl)amino)((1-methylcyclopropyl)amino)-7H-pyrrolo[2,3-d]pyrimidine-5-carbonitrile] showed a remaining binding at 1 µM [1] of 74%, a remaining binding at 1 µM [2] of 0% and a remaining binding at 1 µM [3] of 76%. It also gave a remaining binding at 1 µM [4] of 57%, a remaining binding at 1 µM [5] of 10% and a remaining binding at 1 µM [6] of 31%. The remaining binding at 1 µM [7] was 27%, the remaining binding at 1 µM [8] was 3% and the remaining binding at 1 µM [9] was 0.05%. For the same molecule, the remaining binding at 1 µM [10] was 84%.
